The record followed here is US20150291625A1 (PFIZER INC., priority 2012, published 2015).

Test [1] addresses T1, D1 (Homo sapiens, UniProt P21728). Put plainly: Human D1 receptor binding assay ([3H]-SCH23390 competition).
The target in test [2] is T1, D1. Put plainly: D1 cAMP HTRF assay (HEK293T/hD1#1 stable cell line). Format: cell-based. Also on record: expressed in transfected cells. The text has this: This assay was used to determine the ability of a test compound to agonize (including partially agonize) D1. A Mab anti-cAMP labeled Cryptate visualizes the tracer. […] The signal, therefore, is inversely proportional to the concentration of cAMP in the sample.
The cAMP Dynamic kit was obtained from Cisbio International (Cisbio 62AM4PEJ). Multidrop Combi (Thermo Scientific) was used for assay additions. Envision (PerkinElmer) reader was used to read HTRF.
A HEK293T/hD1#1 stable cell line was constructed internally (Pfizer Ann Arbor). […] One mL aliquots of the cells were made in Cryo-vials and frozen at −80° C. for future use in the D1 HTRF assay.
Frozen cells were quickly thawed, re-suspended in 50 mL warm media and allowed to sit for 5 min prior to centrifugation (1000 rpm) at room temperature. Media was removed and cell pellet was re-suspended in PBS/0.5 μM IBMX generating 2e5 cells/mL. […] Cells and compounds were incubated at room temperature for 30 min. Working solutions of cAMP-D2 and anti-cAMP-cryptate were prepared according to Cisbio instructions. Using Multidrop, 5 μL cAMP-D2 working solution was added to the assay plate containing the test compound and cells. Using Multidrop, 5 μL anti-cAMP-cryptate working solutions was added to assay plate containing test compound, cells and cAMP-D2. Assay plate was incubated for 1 hour at room temperature. Assay plate was read on Envision plate reader using Cisbio recommended settings. A cAMP standard curve was generated using cAMP stock solution provided in the Cisbio kit.
Data analysis was done using computer software. Percent effects were calculated from the compound controls. Ratio EC50 was determined using the raw ratio data from the Envision reader. The cAMP standard curve was used in an analysis program to determine cAMP concentrations from raw ratio data. cAMP EC50 was determined using the calculated cAMP data.
Background: Time-resolved FRET reads energy transfer from a long-lived donor to a nearby acceptor.

The mark [3] stands for this setting: Human D1 Receptor Binding, Ki (nM), Geometric mean of 2-4 determinations, a: >=5 determinations, d: single determination.

The structures appear in SMILES notation. Values joined by “and” are separate entries in the source; they are usually repeats but may differ in a detail not shown here. Equal values may be shown once. Where a name gives a salt, the structure may show the parent alone. Read-outs that look alike come from different tables or passages of the source.

T1 sequence (P21728 whole entry): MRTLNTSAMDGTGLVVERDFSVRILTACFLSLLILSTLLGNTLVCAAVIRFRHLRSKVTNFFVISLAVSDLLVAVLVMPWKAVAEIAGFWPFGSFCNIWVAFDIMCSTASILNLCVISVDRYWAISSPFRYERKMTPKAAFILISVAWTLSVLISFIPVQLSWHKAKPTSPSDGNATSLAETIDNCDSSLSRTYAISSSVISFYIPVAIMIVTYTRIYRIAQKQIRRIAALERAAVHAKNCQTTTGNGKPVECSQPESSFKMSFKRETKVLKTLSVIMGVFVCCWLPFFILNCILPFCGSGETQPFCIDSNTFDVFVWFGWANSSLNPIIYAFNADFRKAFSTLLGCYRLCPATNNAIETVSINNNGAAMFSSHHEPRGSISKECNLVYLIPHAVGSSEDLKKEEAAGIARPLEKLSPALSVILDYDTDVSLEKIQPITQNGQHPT

As for `Cc1cc(Oc2nccc3occc23)ccc1-c1c(C)cnc2nccn12` (single isomer, unassigned) [Example 146, 5-[4-(furo[3,2-c]pyridin-4-yloxy)-2-methylphenyl]-6-methylimidazo[1,2-a]pyrimidine], affinity at D1 [1] (setting [3]) was put at a Ki of 49.7 nM. At D1 [2], the EC50 was 324 nM.

At D1 [1] (setting [3]), `Cc1n[nH]c(=O)c(C)c1-c1ccc(Oc2nccc3occ(C#N)c23)cc1` [Example 212, 4-[4-(3,5-dimethyl-6-oxo-1,6-dihydropyridazin-4-yl)phenoxy]furo[3,2-c]pyridine-3-carbonitrile] showed a Ki of 18.7 nM. In addition, the concentration for a half-maximal effect (EC50) at D1 [2] turned out to be 119 nM.

`Cc1cc(Oc2nccc3occc23)ccc1-c1c(C)nc(C)c(=O)n1C` [Example 117, 6-[4-(furo[3,2-c]pyridin-4-yloxy)-2-methylphenyl]-1,3,5-trimethylpyrazin-2(1H)-one] registered an inhibition constant (Ki) at D1 [1] (setting [3]) of 23.1 nM. The compound also had an EC50 on D1 [2] of 452 nM.

The compound `Nc1cc(Oc2nccc3occc23)ccc1-c1cccc2nccn12` [Example 16, 5-(Furo[3,2-c]pyridin-4-yloxy)-2-(imidazo[1,2-a]pyridin-5-yl)aniline] returned an inhibition constant (Ki) on D1 [1] (setting [3]) of 146 nM. At D1 [2], a half-maximal response (EC50) required 415 nM.

In turn, `Cc1ncnc(C)c1-c1ccc(Oc2nccc3occc23)cc1F` [Example 69, 4-[4-(4,6-dimethylpyrimidin-5-yl)-3-fluorophenoxy]furo[3,2-c]pyridine] yielded a Ki on D1 [1] (setting [3]) of 77.7 nM. On D1 [2], the EC50 is 201 nM and 203 nM.

`Cc1cc(Oc2nccc3occc23)ccc1-c1c(C)nc(O)nc1C` [Example 152, 5-[4-(furo[3,2-c]pyridin-4-yloxy)-2-methylphenyl]-4,6-dimethylpyrimidin-2-ol] showed a Ki on D1 [1] (setting [3]) of 79.5 nM. The compound also had a half-maximal effective concentration (EC50) on D1 [2] of 565 nM.

As for `CCC(=O)COc1cc(Oc2nccc3occc23)ccc1-c1cccc2nccn12` [Example 41, 1-[5-(furo[3,2-c]pyridin-4-yloxy)-2-(imidazo[1,2-a]pyridin-5-yl)phenoxy]butan-2-one, trifluoroacetate salt], the Ki at D1 [1] (setting [3]) was found to be 72.1 nM. Further, the concentration giving a half-maximal response (EC50) on D1 [2] amounted to 517 nM.

With `Cc1ncccc1-c1ccc(Oc2nccc3occc23)cc1F` [Example 92, 4-[3-fluoro-4-(2-methylpyridin-3-yl)phenoxy]furo[3,2-c]pyridine], the Ki at D1 [1] (setting [3]) is 25.2 nM. This compound showed a half-maximal effective concentration (EC50) at D1 [2] of 746 nM.

The compound `Cc1ncnc(C)c1-c1ccc(Oc2nccc3occc23)c2[nH]ccc12` [Example 23, 4-{[4-(4,6-Dimethylpyrimidin-5-yl)-1H-indol-7-yl]oxy}furo[3,2-c]pyridine] came in with an inhibition constant (Ki) on D1 [1] (setting [3]) of 30.6 nM. In addition, at D1 [2], the EC50 was 848 nM.

Consider `Cn1nccc1-c1ccc(Sc2nccc3occc23)cc1` [Example 8, 4-{[4-(1-Methyl-1H-pyrazol-5-yl)phenyl]sulfanyl}furo[3,2-c]pyridine, trifluoroacetate salt], for which the Ki on D1 [1] (setting [3]) stood at 283 nM. Further, the EC50 on D1 [2] amounted to 854 nM.

`CCCc1noc(COc2cc(Oc3nccc4occc34)ccc2-c2nccnc2C)n1` [Example 182, 4-{4-(3-methylpyrazin-2-yl)-3-[(3-propyl-1,2,4-oxadiazol-5-yl)methoxy]phenoxy}furo[3,2-c]pyridine, formate salt]: the affinity on D1 [1] (setting [3]), expressed as Ki, was 58 nM. The response at D1 [2] was half-maximal at 641 nM (EC50).

`Cc1cc(Oc2nccc3occc23)ccc1-c1c(C)cnc2nccn12` [Example 110, 5-[4-(furo[3,2-c]pyridin-4-yloxy)-2-methylphenyl]-6-methylimidazo[1,2-a]pyrimidine] registered a Ki at D1 [1] (setting [3]) of 2.89 nM. Moreover, the response at D1 [2] was half-maximal at 33.8 nM (EC50).

As for `Cc1ncnc(C#N)c1-c1ccc(Oc2nccc3occc23)cc1F` [Example 70, 5-[2-fluoro-4-(furo[3,2-c]pyridin-4-yloxy)phenyl]-6-methylpyrimidine-4-carbonitrile], affinity on D1 [1] (setting [3]) was put at a Ki of 124 nM. Moreover, the 50% effective concentration (EC50) at D1 [2] is 424 nM and 1020 nM.

In turn, `Cc1cc(Oc2nccc3occc23)ccc1-c1c(C)cnc(=O)n1C` [Example 124, 6-[4-(furo[3,2-c]pyridin-4-yloxy)-2-methylphenyl]-1,5-dimethylpyrimidin-2(1H)-one] displayed an inhibitory constant (Ki) on D1 [1] (setting [3]) of 29.4 nM. At D1 [2], this compound registered an EC50 of 188 nM.

In the case of `Cc1cc(Oc2nccc3occc23)ccc1-c1c(C)ncnc1C(=O)O` [Example 118, 5-[4-(furo[3,2-c]pyridin-4-yloxy)-2-methylphenyl]-6-methylpyrimidine-4-carboxylic acid], the inhibition constant Ki on D1 [1] (setting [3]) was > 986 nM. The EC50 on D1 [2] is > 30000 nM.

Turning to `Cc1ncccc1-c1ccc(Oc2nccc3occc23)cc1` [Example 184, 4-[4-(2-methylpyridin-3-yl)phenoxy]furo[3,2-c]pyridine], the Ki at D1 [1] (setting [3]) came to 63.3 nM. Further, the midpoint of the response at D1 [2], the EC50, lay at 881 nM.

On D1 [1] (setting [3]), `Cc1cc(N(C)c2nccc3occc23)ccc1-c1cccc2nccn12` [Example 55, N-[4-(imidazo[1,2-a]pyridin-5-yl)-3-methylphenyl]-N-methylfuro[3,2-c]pyridin-4-amine] showed a Ki of 244 nM. Moreover, at D1 [2], the half-maximal effective concentration (EC50) is > 29900 nM.

Regarding `Cc1cc(Oc2nccc3occc23)ccc1-c1c(C)cnn1C(C)(C)C` [Example 15, 4-[4-(1-tert-Butyl-4-methyl-1H-pyrazol-5yl)-3-methylphenoxy]furo[3,2-c]pyridine], on D1 [1] (read-out: Human D1 Receptor Binding, Ki (nM), Geometric mean of 2-4 determinations, a: >=5 determinations, d: single determination), the Ki was 121 nM. The compound also displayed a 50% effective concentration (EC50) on D1 [2] of 895 nM.

Turning to `Cc1cc(Oc2nccc3occc23)ccc1-c1c(C)cn[nH]c1=O` [Example 10, 4-[4-(Furo[3,2-c]pyridin-4-yloxy)-2-methylphenyl]-5-methylpyridazin-3(2H)-one, bis-hydrochloride salt], at D1 [1] (setting [3]), the affinity, expressed as Ki, was 2280 nM. Further, at D1 [2], the 50% effective concentration (EC50) was > 30000 nM.

In turn, `CNc1ncnc(C)c1-c1ccc(Oc2nccc3occc23)cc1C` [Example 81, 5-[4-(furo[3,2-c]pyridin-4-yloxy)-2-methylphenyl]-N,6-dimethylpyrimidin-4-amine] displayed a Ki at D1 [1] (setting [3]) of 270 nM. For the same compound, the EC50 on D1 [2] was found to be 1770 nM.

The compound `CCOc1ncnc(C)c1-c1ccc(Oc2nccc3occc23)cc1F` [Example 192, 4-[4-(4-ethoxy-6-methylpyrimidin-5-yl)-3-fluorophenoxy]furo[3,2-c]pyridine] returned a Ki at D1 [1] (setting [3]) of 86.4 nM. For the same compound, the EC50 at D1 [2] was 737 nM and 1500 nM.

Turning to `CCc1noc(COc2cc(Oc3nccc4occc34)ccc2-c2cccnc2C)n1` [Example 78, 4-{3-[(3-ethyl-1,2,4-oxadiazol-5-yl)methoxy]-4-(2-methylpyridin-3-yl)phenoxy}furo[3,2-c]pyridine], the Ki at D1 [1] (setting [3]) was 48.3 nM. In addition, the EC50 at D1 [2] was 885 nM and 1230 nM.

Take `Cc1cc(Oc2nccc3occc23)ccc1-c1c(C)ncnc1N1CC[C@H](F)C1` [Example 163, 4-(4-{4-[(3S)-3-fluoropyrrolidin-1-yl]-6-methylpyrimidin-5-yl}-3-methylphenoxy)furo[3,2-c]pyridine, formate salt]: at D1 [1] (setting [3]), the inhibition constant Ki stood at 12.8 nM. On D1 [2], this compound registered an EC50 of 389 nM.

`Cc1cc(Oc2nccc3occ(C4CC4)c23)ccc1-c1c(C)ncnc1C` [Example 209, 3-cyclopropyl-4-[4-(4,6-dimethylpyrimidin-5-yl)-3-methylphenoxy]furo[3,2-c]pyridine, trifluoroacetate salt] yielded a Ki at D1 [1] (setting [3]) of 131 nM. This compound also came in with an EC50 at D1 [2] of 5620 nM.

On to `COc1cc(Oc2nccc3occc23)ccc1-c1c(C)ccnc1C#N` [Example 51, 3-[4-(furo[3,2-c]pyridin-4-yloxy)-2-methoxyphenyl]-4-methylpyridine-2-carbonitrile, trifluoroacetate salt], for which the Ki on D1 [1] (setting [3]) worked out at 61.7 nM. The EC50 at D1 [2] was 799 nM and 1220 nM.

What is called Ki is a measure of affinity in units of concentration, obtained from inhibition or displacement. One may read the EC50 as the concentration at which the effect is half-maximal. Low readings indicate an effect from little substance, high ones a need for much substance.
